# Source: patent publication US20170368082A1, “FORMULATIONS OF BRINCIDOFOVIR” (priority 2016, published 2017)
# Experiment: Tissue distribution by quantitative whole-body autoradiography (QWBA)
# Type: in vivo, male Sprague Dawley and Long-Evans rats
# Conditions: for AUCall Ratio (PO/IV) / Cmax Ratio (PO/IV): Group 7 vs Group 4
# Procedure: The study utilized 4 groups of male SD rats (albino), and 3 groups of male LE rats (pigmented); a total of 39 rats. All animals were obtained from Hilltop Lab Animals, Inc. (Scottdale, Pa.). […] Rats in Group 5 were administered a single 2-h IV infusion of [^14C]brincidofovir at a target dose of 2 mg/kg. […] Three dosing formulations (one for high dose IV, one for low dose IV, and one for PO dose) were prepared at QPS on the day of dosing. The IV formulation for Groups 1, 2, 3, and 4 contained a vehicle of 10 mM sodium phosphate buffer in 5% dextrose solution at pH 8.0(±0.1).
# Each animal, at their respective termination time points, was euthanized for QWBA analysis immediately after blood collection. One rat per time point per Group was euthanized as listed below.
# The blood samples were maintained on wet ice (approximately 4° C.) and then centrifuged to obtain plasma within 1 h of the blood collection time. Centrifuge settings were recorded in the study notebook. Duplicate aliquots of plasma (0.050 mL) were analyzed for radioactivity using direct counting by LSC, and residual plasma was stored at approximately −70° C. and was saved for possible future analysis under a separate study protocol. Residual red blood cells were discarded as radioactive waste.
# The pinna, distal limbs, hair, and tail were removed from each frozen carcass and each frozen carcass was embedded in an aqueous suspension of approximately 2% (w/v) carboxymethylcellulose and frozen into a block. The blocks were stored at approximately −20° C. prior to sectioning. Each blocked carcass was mounted on the object stage of a cryomicrotome (Leica CM3600 Cryomacrocut, Nussloch, Germany and Vibratome 9800, St. Louis, Mo.) maintained at approximately −20° C. and internal standards (3), which were plasma fortified with [^14C]-glucose at one concentration (approximately 0.05 μCi/mL), were placed into the frozen blocks, prior to sectioning, and were used for section thickness quality control. A number of whole-body sections (approximately 40 μm thick) were taken in the sagittal plane at various levels of interest using a whole-body cryomicrotome set at −20° C. Sagittal sections (20-50 μm thick) of frozen carcasses were exposed to phosphor imaging plates. Regions of images in tissues were converted to concentrations using standards. All of the major tissues, organs, and biological fluids were represented.
# Tissue concentration data was determined for the following tissues and/or contents: adipose (brown and white), adrenal gland, bile (in duct), blood (cardiac), bone, bone marrow, brain (cerebrum, cerebellum, medulla), cecum (and contents), large intestine (and contents), epididymis, esophagus, eye (uvea and lens), Harderian gland, heart, kidney (cortex and medulla), liver, lung, lymph node, pancreas, pituitary gland, prostate gland, salivary gland, seminal vesicles, skeletal muscle, skin (pigmented and non-pigmented), small intestine (and contents), stomach (gastric mucosa and contents), spleen, spinal cord, testis, thymus, thyroid, and urinary bladder (and contents).
# The imaging plate and sections were placed in light-tight exposure cassettes, in a copper-lined lead safe, for a 4-day exposure at room temperature. […] Quantification was performed by image densitometry using MCD image analysis software (v. 7.0, Interfocus Imaging Ltd) and a standard curve constructed from the integrated response [i.e., Molecular Dynamics Counts per square millimeter (MDC/mm^2)] and the nominal concentrations of the ^14C-calibration standards. The concentrations of radioactivity were expressed as the μg equivalents of [^14C]brincidofovir per gram sample (μg equiv/g). A lower limit of quantification (LLOQ) was applied to the data (See section 6.7.4).
# Tissue concentrations that fell below the LLOQ were identified as being below the quantification limit (BQL). Tissue areas that were not visualized on autoradiographic images were identified as no sample (NS) and reported as BQL.
smiles,measurement,setting,value
CCCCCCCCCCCCCCCCOCCCOP(=O)(O)CO[C@H](CO)Cn1ccc(N)nc1=O [[^14C] brincidofovir],Tissue Concentration (168 h),"Skin (non-pigmented), 2 h IV infusion 15 mg/kg, Group 4, LLOQ 0.036",0.226 μg equiv/g
same,Tissue Concentration (168 h),"Skin (non-pigmented), PO 15 mg/kg, Group 7, LLOQ 0.034",BQL
same,AUCall,"Skin (non-pigmented), PO 15 mg/kg, Group 7",14.0275 μg equiv · h/g
same,AUCall Ratio (PO/IV),"Skin (pigmented), 15 mg/kg",0.18
same,Cmax Ratio (PO/IV),"Skin (pigmented), 15 mg/kg",0.15
same,AUCall,"Skin (pigmented), 2 h IV infusion 15 mg/kg, Group 4",95.5050 μg equiv · h/g
same,Tissue Concentration (168 h),"Skin (pigmented), 2 h IV infusion 15 mg/kg, Group 4, LLOQ 0.036",0.09 μg equiv/g
same,Tissue Concentration (168 h),"Skin (pigmented), PO 15 mg/kg, Group 7, LLOQ 0.034",BQL
same,AUCall,"Skin (pigmented), PO 15 mg/kg, Group 7",17.0405 μg equiv · h/g
same,AUCall Ratio (PO/IV),"Small Intestine, 15 mg/kg",8.25
same,Cmax Ratio (PO/IV),"Small Intestine, 15 mg/kg",6.45
same,AUCall,"Small Intestine, 2 h IV infusion 15 mg/kg, Group 4",1160.650 μg equiv · h/g
same,Tissue Concentration (168 h),"Small Intestine, 2 h IV infusion 15 mg/kg, Group 4, LLOQ 0.036",0.339 μg equiv/g
same,Tissue Concentration (168 h),"Small Intestine, PO 15 mg/kg, Group 7, LLOQ 0.034",5.867 μg equiv/g
same,AUCall,"Small Intestine, PO 15 mg/kg, Group 7, 15 mg/kg",9575.18 μg equiv · h/g
same,AUCall Ratio (PO/IV),"Spinal Cord, 15 mg/kg",0.02
same,Cmax Ratio (PO/IV),"Spinal Cord, 15 mg/kg",0.04
same,AUCall,"Spinal Cord, 2 h IV infusion 15 mg/kg, Group 4",5.7830 μg equiv · h/g
same,Tissue Concentration (168 h),"Spinal Cord, 2 h IV infusion 15 mg/kg, Group 4, LLOQ 0.036",BQL
same,Tissue Concentration (168 h),"Spinal Cord, PO 15 mg/kg, Group 7, LLOQ 0.034",BQL
same,AUCall,"Spinal Cord, PO 15 mg/kg, Group 7",0.1110 μg equiv · h/g
same,AUCall Ratio (PO/IV),"Spleen, 15 mg/kg",0.27
same,Cmax Ratio (PO/IV),"Spleen, 15 mg/kg",0.18
same,AUCall,"Spleen, 2 h IV infusion 15 mg/kg, Group 4",642.3590 μg equiv · h/g
same,Tissue Concentration (168 h),"Spleen, 2 h IV infusion 15 mg/kg, Group 4, LLOQ 0.036",0.892 μg equiv/g
same,Tissue Concentration (168 h),"Spleen, PO 15 mg/kg, Group 7, LLOQ 0.034",0.274 μg equiv/g
same,AUCall,"Spleen, PO 15 mg/kg, Group 7",172.2208 μg equiv · h/g
same,AUCall Ratio (PO/IV),"Stomach (mucosa), 15 mg/kg",1.29
same,Cmax Ratio (PO/IV),"Stomach (mucosa), 15 mg/kg",4.75
same,AUCall,"Stomach (mucosa), 2 h IV infusion 15 mg/kg, Group 4",70.2310 μg equiv · h/g
same,Tissue Concentration (168 h),"Stomach (mucosa), 2 h IV infusion 15 mg/kg, Group 4, LLOQ 0.036",0.069 μg equiv/g
same,Tissue Concentration (168 h),"Stomach (mucosa), PO 15 mg/kg, Group 7, LLOQ 0.034",0.042 μg equiv/g
same,AUCall,"Stomach (mucosa), PO 15 mg/kg, Group 7",90.7575 μg equiv · h/g
same,AUCall Ratio (PO/IV),"Testis, 15 mg/kg",0.39
same,Cmax Ratio (PO/IV),"Testis, 15 mg/kg",0.17
same,AUCall,"Testis, 2 h IV infusion 15 mg/kg, Group 4",77.2835 μg equiv · h/g
same,Tissue Concentration (168 h),"Testis, 2 h IV infusion 15 mg/kg, Group 4, LLOQ 0.036",0.098 μg equiv/g
same,Tissue Concentration (168 h),"Testis, PO 15 mg/kg, Group 7, LLOQ 0.034",0.041 μg equiv/g
same,AUCall,"Testis, PO 15 mg/kg, Group 7",30.3920 μg equiv · h/g
same,AUCall Ratio (PO/IV),"Thymus, 15 mg/kg",0.13
same,Cmax Ratio (PO/IV),"Thymus, 15 mg/kg",0.11
same,AUCall,"Thymus, 2 h IV infusion 15 mg/kg, Group 4",92.4355 μg equiv · h/g
same,Tissue Concentration (168 h),"Thymus, 2 h IV infusion 15 mg/kg, Group 4, LLOQ 0.036",0.1 μg equiv/g
same,Tissue Concentration (168 h),"Thymus, PO 15 mg/kg, Group 7, LLOQ 0.034",BQL
same,AUCall,"Thymus, PO 15 mg/kg, Group 7",12.0843 μg equiv · h/g
same,AUCall Ratio (PO/IV),"Thyroid, 15 mg/kg",0.13
same,Cmax Ratio (PO/IV),"Thyroid, 15 mg/kg",0.13
same,AUCall,"Thyroid, 2 h IV infusion 15 mg/kg, Group 4",238.0230 μg equiv · h/g
same,Tissue Concentration (168 h),"Thyroid, 2 h IV infusion 15 mg/kg, Group 4, LLOQ 0.036",0.459 μg equiv/g
same,Tissue Concentration (168 h),"Thyroid, PO 15 mg/kg, Group 7, LLOQ 0.034",0.038 μg equiv/g
same,AUCall,"Thyroid, PO 15 mg/kg, Group 7",31.3395 μg equiv · h/g
same,AUCall Ratio (PO/IV),"Urinary Bladder, 15 mg/kg",0.52
same,Cmax Ratio (PO/IV),"Urinary Bladder, 15 mg/kg",0.16
same,AUCall,"Urinary Bladder, 2 h IV infusion 15 mg/kg, Group 4",215.5480 μg equiv · h/g
same,Tissue Concentration (168 h),"Urinary Bladder, 2 h IV infusion 15 mg/kg, Group 4, LLOQ 0.036",BQL
same,Tissue Concentration (168 h),"Urinary Bladder, PO 15 mg/kg, Group 7, LLOQ 0.034",0.076 μg equiv/g
same,AUCall,"Urinary Bladder, PO 15 mg/kg, Group 7",111.2445 μg equiv · h/g
